Laboratory results reported in US12310975B2, “Modulators of BCL6 proteolysis and associated methods of use” (Arvinas Operations, Inc., priority 2019, dated 2025).

The molecules below were run against BCL6 (Homo sapiens (Human), UniProt P41182) (assay: Immunofluorescence high content imaging of BCL6 degradation in T47D cells). Conditions: not given.
Format: cell-based
Method in brief: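 Seed T47D in RPMI1640-10% FBS to reach ~70-90% confluence at endpoint; add degrader next day (11-point 3-fold series, top 0.1 or 1 μM final) for 3 days. Then fix, permeabilize, stain BCL6 with nuclear Hoechst, and image.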
`CCn1c(=O)c(OCC(=O)NC)cc2cc(Nc3nc(N4CCN(CC5CN(C6CN(c7ccc8c(c7)C(=O)N(C7CCC(=O)NC7=O)C8=O)C6)C5)CC4)ncc3Cl)ccc21` (stereo not drawn) [compound 302, 2-{[6-({5-chloro-2-[4-({1′-[2-(2,6-dioxopiperidin-3-yl)-1,3-dioxo-2,3-dihydro-1H-isoindol-5-yl]-[1,3′-biazetidin]-3-yl}methyl)piperazin-1-yl]pyrimidin-4-yl}amino)-1-ethyl-2-oxo-1,2-dihydroquinolin-3-yl]oxy}-N-methylacetamide] gave an IC50 of 10 to 50 nM.
In the case of `CNC(=O)COc1cc2cc(Nc3nc(N4CCN(CC5CCN(c6ccc7c(c6)C(=O)N(C6CCC(=O)NC6=O)C7=O)CC5)CC4)c(Cl)cc3Cl)ccc2n(C)c1=O` (stereo not drawn) [compound 254, 2-((6-((3,5-dichloro-6-(4-((1-(2-(2,6-dioxopiperidin-3-yl)-1,3-dioxoisoindolin-5-yl)piperidin-4-yl)methyl)piperazin-1-yl)pyridin-2-yl)amino)-1-methyl-2-oxo-1,2-dihydroquinolin-3-yl)oxy)-N-methylacetamide], the IC50 is reported as no less than 100 nM.
`CCn1c(=O)c(OCC(=O)NC)cc2cc(Nc3nc(N4CCO[C@H](COc5ccc6c(c5)C(=O)N(C5CCC(=O)NC5=O)C6=O)C4)ncc3Cl)ccc21` (stereo partly drawn) [compound 294, 2-{[6-({5-chloro-2-[(2S)-2-({[2-(2,6-dioxopiperidin-3-yl)-1,3-dioxo-2,3-dihydro-1H-isoindol-5-yl]oxy}methyl)morpholin-4-yl]pyrimidin-4-yl}amino)-1-ethyl-2-oxo-1,2-dihydroquinolin-3-yl]oxy}-N-methylacetamide] was tested, and the IC50 was 50 to 100 nM.
`CCn1c(=O)c(OCC(=O)NC)cc2cc(Nc3nc(N4CCN(CC5CCN(c6cccc(C(=O)NC7CCC(=O)NC7=O)c6F)CC5)CC4)ncc3Cl)ccc21` (stereo not drawn) [compound 295, 3-[4-({4-[5-chloro-4-({1-ethyl-3-[(methylcarbamoyl)methoxy]-2-oxo-1,2-dihydroquinolin-6-yl}amino)pyrimidin-2-yl]piperazin-1-yl}methyl)piperidin-1-yl]-N-(2,6-dioxopiperidin-3-yl)-2-fluorobenzamide] was tested, and the IC50 was less than 10 nM.

Same assay, conditions: T47D
Molecule `CCn1c(=O)c(OCC(=O)NC)cc2cc(Nc3nc(N4CCN(CC5CN(C6CN(c7ccc8c(c7)C(=O)N(C7CCC(=O)NC7=O)C8=O)C6)C5)CC4)ncc3Cl)ccc21` (stereo not drawn) [compound 302, 2-{[6-({5-chloro-2-[4-({1′-[2-(2,6-dioxopiperidin-3-yl)-1,3-dioxo-2,3-dihydro-1H-isoindol-5-yl]-[1,3′-biazetidin]-3-yl}methyl)piperazin-1-yl]pyrimidin-4-yl}amino)-1-ethyl-2-oxo-1,2-dihydroquinolin-3-yl]oxy}-N-methylacetamide] has a Dmax of less than 50%.
`CCn1c(=O)c(OCC(=O)NC)cc2cc(Nc3nc(N4CCO[C@H](COc5ccc6c(c5)C(=O)N(C5CCC(=O)NC5=O)C6=O)C4)ncc3Cl)ccc21` (stereo partly drawn) [compound 294, 2-{[6-({5-chloro-2-[(2S)-2-({[2-(2,6-dioxopiperidin-3-yl)-1,3-dioxo-2,3-dihydro-1H-isoindol-5-yl]oxy}methyl)morpholin-4-yl]pyrimidin-4-yl}amino)-1-ethyl-2-oxo-1,2-dihydroquinolin-3-yl]oxy}-N-methylacetamide] showed a Dmax of less than 50%.
`CCn1c(=O)c(OCC(=O)NC)cc2cc(Nc3nc(N4CCN(CC5CCN(c6cccc(C(=O)NC7CCC(=O)NC7=O)c6F)CC5)CC4)ncc3Cl)ccc21` (stereo not drawn) [compound 295, 3-[4-({4-[5-chloro-4-({1-ethyl-3-[(methylcarbamoyl)methoxy]-2-oxo-1,2-dihydroquinolin-6-yl}amino)pyrimidin-2-yl]piperazin-1-yl}methyl)piperidin-1-yl]-N-(2,6-dioxopiperidin-3-yl)-2-fluorobenzamide] showed a Dmax of 50 to 70%.

Same assay, conditions: T47D cells
`CNC(=O)COc1cc2cc(Nc3nc(N4CCC(CN5CCC6(CC5)CN(c5cccc(C(=O)NC7CCC(=O)NC7=O)c5OC)C6)CC4)ncc3Cl)ccc2n(C(C)C)c1=O` (stereo not drawn) [compound 420, 3-[7-({1-[5-chloro-4-({3-[(methylcarbamoyl)methoxy]-2-oxo-1-(propan-2-yl)-1,2-dihydroquinolin-6-yl}amino)pyrimidin-2-yl]piperidin-4-yl}methyl)-2,7-diazaspiro[3.5]nonan-2-yl]-N-(2,6-dioxopiperidin-3-yl)-2-methoxybenzamide] was tested, and the Dmax was less than 50% and the IC50 was 50 to 100 nM.
`CNC(=O)COc1cc2cc(Nc3nc(N4C[C@@H](COc5ccc6c(c5)C(=O)N(C5CCC(=O)NC5=O)C6=O)O[C@H](C)C4)ncc3Cl)ccc2n(C(C)C)c1=O` (stereo partly drawn) [compound 382, 2-{[6-({5-chloro-2-[(2S,6R)-2-({[2-(2,6-dioxopiperidin-3-yl)-1,3-dioxo-2,3-dihydro-1H-isoindol-5-yl]oxy}methyl)-6-methylmorpholin-4-yl]pyrimidin-4-yl}amino)-2-oxo-1-(propan-2-yl)-1,2-dihydroquinolin-3-yl]oxy}-N-methylacetamide] was tested, and the Dmax was 50 to 70% and the IC50 was 50 to 100 nM.
`CNC(=O)COc1cc2cc(Nc3nc(N4CCN(CC5CCN(c6cnc(C(=O)NC7CCC(=O)NC7=O)c(OC)c6)CC5)CC4)ncc3Cl)ccc2n(C)c1=O` (stereo not drawn) [compound 359, 5-[4-({4-[5-chloro-4-({1-methyl-3-[(methylcarbamoyl)methoxy]-2-oxo-1,2-dihydroquinolin-6-yl}amino)pyrimidin-2-yl]piperazin-1-yl}methyl)piperidin-1-yl]-N-(2,6-dioxopiperidin-3-yl)-3-methoxypyridine-2-carboxamide] was tested, and the Dmax was 50 to 70% and the IC50 was 10 to 50 nM.
`CNC(=O)COc1cc2cc(Nc3nc(N4CCN(C(C)(C)C5CCN(c6ccc(C(=O)NC7CCC(=O)NC7=O)c(OC)c6)CC5)CC4)ncc3Cl)ccc2n(C)c1=O` (stereo not drawn) [compound 315, 4-[4-(2-{4-[5-chloro-4-({1-methyl-3-[(methylcarbamoyl)methoxy]-2-oxo-1,2-dihydroquinolin-6-yl}amino)pyrimidin-2-yl]piperazin-1-yl}propan-2-yl)piperidin-1-yl]-N-(2,6-dioxopiperidin-3-yl)-2-methoxybenzamide] showed a Dmax of 50 to 70% and an IC50 of 10 to 50 nM.
Work on `CNC(=O)COc1cc2cc(Nc3nc(N4CCC(CN5CC6(CCN(c7cccc8c7C(=O)N(C7CCC(=O)NC7=O)C8=O)CC6)C5)CC4)ncc3Cl)ccc2n(C(C)C)c1=O` (stereo not drawn) [compound 439, 2-{[6-({5-chloro-2-[4-({7-[2-(2,6-dioxopiperidin-3-yl)-1,3-dioxo-2,3-dihydro-1H-isoindol-4-yl]-2,7-diazaspiro[3.5]nonan-2-yl}methyl)piperidin-1-yl]pyrimidin-4-yl}amino)-2-oxo-1-(propan-2-yl)-1,2-dihydroquinolin-3-yl]oxy}-N-methylacetamide] yielded a Dmax of 50 to 70% and an IC50 of less than 10 nM.
`CNC(=O)COc1cc2cc(Nc3nc(N4CCN(C(C)(C)C5CCN(c6cc(OC)cc(C(=O)NC7CCC(=O)NC7=O)c6F)CC5)CC4)ncc3Cl)ccc2n(C)c1=O` (stereo not drawn) [compound 356, 3-[4-(2-{4-[5-chloro-4-({1-methyl-3-[(methylcarbamoyl)methoxy]-2-oxo-1,2-dihydroquinolin-6-yl}amino)pyrimidin-2-yl]piperazin-1-yl}propan-2-yl)piperidin-1-yl]-N-(2,6-dioxopiperidin-3-yl)-2-fluoro-5-methoxybenzamide] was tested, and the Dmax was no less than 70% and the IC50 was less than 10 nM.
In the case of `CNC(=O)COc1cc2cc(Nc3nc(N4CCN(C(C)C5CCN(c6ccc7c(c6)C(=O)N(C6CCC(=O)NC6=O)C7=O)CC5)CC4)ncc3Cl)ccc2n(C)c1=O` (stereo not drawn) [compound 335, 2-{[6-({5-chloro-2-[4-(1-{1-[2-(2,6-dioxopiperidin-3-yl)-1,3-dioxo-2,3-dihydro-1H-isoindol-5-yl]piperidin-4-yl}ethyl)piperazin-1-yl]pyrimidin-4-yl}amino)-1-methyl-2-oxo-1,2-dihydroquinolin-3-yl]oxy}-N-methylacetamide], the Dmax is reported as 50 to 70% and the IC50 is reported as less than 10 nM.
`CNC(=O)COc1cc2cc(Nc3nc(N4CCC(CN5CCC(c6nc(C(=O)NC7CCC(=O)NC7=O)cs6)CC5)CC4)ncc3Cl)ccc2n(C)c1=O` (stereo not drawn) [compound 360, 2-[1-({1-[5-chloro-4-({1-methyl-3-[(methylcarbamoyl)methoxy]-2-oxo-1,2-dihydroquinolin-6-yl}amino)pyrimidin-2-yl]piperidin-4-yl}methyl)piperidin-4-yl]-N-(2,6-dioxopiperidin-3-yl)-1,3-thiazole-4-carboxamide] showed a Dmax of 50 to 70% and an IC50 of 10 to 50 nM.
`CNC(=O)COc1cc2cc(Nc3nc(N4CCC(OC5CC6(CCN(c7cccc(C(=O)NC8CCC(=O)NC8=O)c7F)CC6)C5)CC4)ncc3Cl)ccc2n(C(C)C)c1=O` (stereo not drawn) [compound 433, 3-[2-({1-[5-chloro-4-({3-[(methylcarbamoyl)methoxy]-2-oxo-1-(propan-2-yl)-1,2-dihydroquinolin-6-yl}amino)pyrimidin-2-yl]piperidin-4-yl}oxy)-7-azaspiro[3.5]nonan-7-yl]-N-(2,6-dioxopiperidin-3-yl)-2-fluorobenzamide] gave a Dmax of no less than 70%.
In the case of `CNC(=O)COc1cc2cc(Nc3nc(N4CCC[C@H](COc5cccc6c5C(=O)N(C5CCC(=O)NC5=O)C6=O)C4)ncc3Cl)ccc2n(C2CC2)c1=O` (stereo partly drawn) [compound 336, 2-{[6-({5-chloro-2-[(3S)-3-({[2-(2,6-dioxopiperidin-3-yl)-1,3-dioxo-2,3-dihydro-1H-isoindol-4-yl]oxy}methyl)piperidin-1-yl]pyrimidin-4-yl}amino)-1-cyclopropyl-2-oxo-1,2-dihydroquinolin-3-yl]oxy}-N-methylacetamide], the Dmax is reported as 50 to 70% and the IC50 is reported as 10 to 50 nM.

Same assay, conditions: class symbols A-D, read-out: EC50 (nM)*
Work on `CNC(=O)COc1cc2cc(Nc3nc(N4CCC(OCCOCCOc5cc(-c6scnc6C)ccc5CNC(=O)[C@@H]5C[C@@H](O)CN5C(=O)C(c5cc(C)no5)C(C)C)CC4)ncc3Cl)ccc2n(C)c1=O` (stereo partly drawn) [compound 53, (2S,4R)-N-(2-(2-(2-((1-(5-chloro-4-((1-methyl-3-(2-(methylamino)-2-oxoethoxy)-2-oxo-1,2-dihydroquinolin-6-yl)amino)pyrimidin-2-yl)piperidin-4-yl)oxy)ethoxy)ethoxy)-4-(4-methylthiazol-5-yl)benzyl)-4-hydroxy-1-(3-methyl-2-(3-methylisoxazol-5-yl)butanoyl)pyrrolidine-2-carboxamide] yielded a DC50 greater than 100 nM.
Molecule `CNC(=O)COc1cc2cc(Nc3nc(N4CCC(OCCOCCNc5cccc6c5C(=O)N(C5CCC(=O)NC5=O)C6=O)CC4)ncc3Cl)ccc2n(C)c1=O` (stereo not drawn) [compound 75, 2-((6-((5-chloro-2-(4-(2-(2-((2-(2,6-dioxopiperidin-3-yl)-1,3-dioxoisoindolin-4-yl)amino)ethoxy)ethoxy)piperidin-1-yl)pyrimidin-4-yl)amino)-1-methyl-2-oxo-1,2-dihydroquinolin-3-yl)oxy)-N-methylacetamide] has a DC50 of 50 to 100 nM.
`CNC(=O)COc1cc2cc(Nc3nc(N4CCC(c5cn(CCOCC(=O)N[C@H](C(=O)N6C[C@H](O)C[C@H]6C(=O)N[C@@H](C)c6ccc(-c7scnc7C)cc6)C(C)(C)C)nn5)CC4)ncc3Cl)ccc2n(C)c1=O` [compound 114, (2S,4R)-1-((S)-2-(2-(2-(4-(1-(5-chloro-4-((1-methyl-3-(2-(methylamino)-2-oxoethoxy)-2-oxo-1,2-dihydroquinolin-6-yl)amino)pyrimidin-2-yl)piperidin-4-yl)-1H-1,2,3-triazol-1-yl)ethoxy)acetamido)-3,3-dimethylbutanoyl)-4-hydroxy-N-((S)-1-(4-(4-methylthiazol-5-yl)phenyl)ethyl)pyrrolidine-2-carboxamide] gave a DC50 of 50 to 100 nM.
With `CNC(=O)COc1cc2cc(Nc3nc(N4CCC(OCCOCCOCCOCCNc5cccc6c5C(=O)N(C5CCC(=O)NC5=O)C6=O)CC4)ncc3Cl)ccc2n(C)c1=O` (stereo not drawn) [compound 66, 2-((6-((5-chloro-2-(4-(2-(2-(2-(2-((2-(2,6-dioxopiperidin-3-yl)-1,3-dioxoisoindolin-4-yl)amino)ethoxy)ethoxy)ethoxy)ethoxy)piperidin-1-yl)pyrimidin-4-yl)amino)-1-methyl-2-oxo-1,2-dihydroquinolin-3-yl)oxy)-N-methylacetamide] the DC50 was greater than 100 nM.
